According to article PMC7067653 (Bioorganic & medicinal chemistry letters, 2020):

Key:
[1] = molecular target: T1, human serotonin 5-HT1A receptor (Homo sapiens, UniProt P08908); experiment: Binding affinity at human serotonin 5-HT1A receptor; conditions: triplicate; na = not active (< 50% inhibition in a primary assay)
T1 sequence (P08908 1-422): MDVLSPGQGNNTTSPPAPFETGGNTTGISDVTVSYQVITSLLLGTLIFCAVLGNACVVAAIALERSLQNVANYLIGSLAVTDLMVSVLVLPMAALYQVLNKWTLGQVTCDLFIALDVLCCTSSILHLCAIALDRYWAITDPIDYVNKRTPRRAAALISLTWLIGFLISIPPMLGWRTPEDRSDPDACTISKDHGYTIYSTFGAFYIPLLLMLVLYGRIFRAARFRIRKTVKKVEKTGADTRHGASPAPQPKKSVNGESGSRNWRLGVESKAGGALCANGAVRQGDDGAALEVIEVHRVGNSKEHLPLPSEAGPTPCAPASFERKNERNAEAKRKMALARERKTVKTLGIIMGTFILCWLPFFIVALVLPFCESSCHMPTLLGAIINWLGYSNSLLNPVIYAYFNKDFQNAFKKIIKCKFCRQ

[2] = molecular target: human dopamine D1 receptor (Homo sapiens, UniProt P21728); experiment: Binding affinity at human dopamine D1 receptor; conditions: amide versus aniline precursor
Sequence of human dopamine D1 receptor (P21728 whole entry): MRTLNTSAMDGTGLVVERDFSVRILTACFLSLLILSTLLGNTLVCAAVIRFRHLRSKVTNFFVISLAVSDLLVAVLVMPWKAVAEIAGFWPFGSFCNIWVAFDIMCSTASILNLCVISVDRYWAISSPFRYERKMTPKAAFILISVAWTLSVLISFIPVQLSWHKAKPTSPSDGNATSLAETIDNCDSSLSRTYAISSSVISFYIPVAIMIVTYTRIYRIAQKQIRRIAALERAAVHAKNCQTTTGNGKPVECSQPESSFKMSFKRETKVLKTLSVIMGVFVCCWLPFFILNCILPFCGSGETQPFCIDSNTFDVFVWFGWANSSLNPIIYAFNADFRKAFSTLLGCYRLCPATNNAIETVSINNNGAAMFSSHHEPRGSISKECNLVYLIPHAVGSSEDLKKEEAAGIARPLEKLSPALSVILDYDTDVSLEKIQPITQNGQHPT

[3] = molecular target: human dopamine D2 receptor (Homo sapiens, UniProt P14416); experiment: Binding affinity at human dopamine D2 receptor; conditions: triplicate; na = not active (< 50% inhibition in a primary assay)
Sequence of human dopamine D2 receptor (P14416 whole entry): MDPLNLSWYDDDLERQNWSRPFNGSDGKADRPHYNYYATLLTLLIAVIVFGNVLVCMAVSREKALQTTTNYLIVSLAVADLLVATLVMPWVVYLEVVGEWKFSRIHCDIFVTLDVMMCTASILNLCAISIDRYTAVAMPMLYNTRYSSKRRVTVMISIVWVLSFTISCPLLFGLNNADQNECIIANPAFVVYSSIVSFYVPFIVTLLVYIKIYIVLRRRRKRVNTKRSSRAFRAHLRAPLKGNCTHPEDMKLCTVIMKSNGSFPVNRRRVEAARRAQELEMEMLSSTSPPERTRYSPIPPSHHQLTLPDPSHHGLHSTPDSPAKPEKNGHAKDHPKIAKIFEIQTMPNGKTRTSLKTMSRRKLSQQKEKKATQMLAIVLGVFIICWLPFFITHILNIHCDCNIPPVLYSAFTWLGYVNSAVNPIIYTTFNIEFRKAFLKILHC

| fold increase in D1 receptor affinity on N-acylation [2] [fold] | Ki D2 [3] | SMILES | Ki 5-HT1A [1] |
| --- | --- | --- | --- |
|  |  | C=CCOc1c(OC)cc2c3c1-c1cc(N)ccc1CC3N(C)CC2 (stereo not shown) [Compound 19d] | no affinity |
| ≤ 12 | no D2 receptor affinity | C=CCOc1c(OC)cc2c3c1-c1cc(NC(C)=O)ccc1CC3N(C)CC2 (stereo not shown) [Compound 20b] |  |
| ≤ 12 |  | C#CCOc1c(OC)cc2c3c1-c1cc(NC(C)=O)ccc1CC3N(C)CC2 (stereo not shown) [Compound 20c] |  |
